In patent publication US20250177324A1, “A[…], AND PREPARATION METHOD THEREFOR AND USE THEREOF” (SHANGHAI ZHIGEN PHARMACEUTICAL & TECHNOLOGY CO. LTD., priority 2022, published 2025):
Like-named read-outs stand apart in the source and are kept apart here.

Key:
[1] = Solid-state chemical stability under different storage conditions (liquid chromatography); format: physicochemical; conditions: 40° C., 75% RH
Experimental: The HPLC conditions were as follows:
Configuration of test solution: appropriate amount of sample was dissolved and diluted with a diluent (0.03 mol/L phosphate buffer-acetonitrile (80:20)) to make 1 mg/mL solution.
Chromatographic conditions: according to the high performance liquid chromatography (Chinese Pharmacopoeia 2020 version of the four general 0512) test, using octadecyl-bonded silica gel (Agilent Eclipse Plus C18, 4.6 mm*250 mm, 5.0 μm, P/N for 959990-902 or a chromatographic column with equivalent performance) as a filler; 0.03 mol/L phosphate buffer (4.08 g of potassium dihydrogen phosphate was dissolved in 1000 ml of water and shaken well) was used as mobile phase A and acetonitrile as mobile phase B at a flow rate of 1 ml/min, the column temperature was 30° C., the detection wavelength was 220 nm, the injection volume was 10 ul, and the sample plate was controlled to 8° C. and running for 65 min. Gradient elution was performed according to the following table: […]
Configuration of test solution: appropriate amount of the product was dissolved and diluted with a diluent (0.1% phosphoric acid-acetonitrile (80:20)) to make 1 mg/mL solution.
Chromatographic conditions: according to the high performance liquid chromatography (Chinese Pharmacopoeia 2020 version of the four general 0512) test, using octadecyl bonded silica gel (Agilent Eclipse Plus C18, 4.6 mm*250 mm, 5.0 μm, P/N 959990-902 or a chromatographic column with equivalent performance) as a filler; 0.1% phosphate buffer (1 ml of phosphoric acid in 1000 ml of water and shake well) as mobile phase A, acetonitrile as mobile phase B, flow rate of 1 ml/min, column temperature of 30° C., detection wavelength of 220 nm, injection volume of 10 ul, running for 48 minutes. Gradient elution was performed according to the following table: […]

[2] = Brain tissue distribution study in rats; format: in vivo; conditions: SD rats, 10 mg/kg gavage
Experimental: Healthy male SD rats, randomly grouped with 3 rats in each group, were given the test compounds by gavage.
(§1) Each test compound was dissolved in saline to form a certain concentration solution for administration.
Fasting but not abstaining from water for 12-14 hours on the day before administration, and food was given 4 h after administration.
Brain tissues were collected after the animals were bled, cleaned, and homogenized with 50% ice methanol 1:4 (m/v). The collection time points were 5 min, 10 min, 30 min, and 2 h after the administration of subjects; 30.0 μL of tissue samples were taken (the samples were taken from the refrigerator at −80° C. and vortexed for 30 s after natural dissolution at room temperature) into 1.5 mL centrifugal tubes, and 300.0 μL of the internal standard solution (30 ng/mL buspirone in acetonitrile) was added; the samples were vortexed for 60 s, and centrifuged for 3 min (the centrifugal force was 12,000 rpm). 75 μL of the supernatant was transferred to a 96-well plate containing an equal volume of water, shaken to mix well and then sampled for LC-MS/MS analysis, the sample volume is 10 μL.

C57 mice [3] = test: Forced swim test of oral administration in mice (antidepressant activity); format: in vivo; conditions: Mus musculus, po, reduction of immobility time vs blank group, single gavage 20 mg/kg
Experimental: To investigate the effects of different compounds on depression-like behavior in C57 mice by single oral administration of 20 mg/kg for 1 h and 24 h followed by forced swimming experiment, respectively.
The experimental animals were 6-week-old C57 mice, male, C57 breed mice purchased from Shanghai Slaughter Laboratory Animal Co. Ltd, weighing 20.45±0.19 g. The animals arrived at the Animal Breeding Center of the Shanghai Institute of Pharmaceutical Sciences, Chinese Academy of Sciences (Animal Production License: SCXK9[Shanghai]2004-0002, Use License: SYXK [Shanghai]2003-0029) before the experiments and were acclimated to the animal facilities for more than 3 days, 6 animals/cage were feed. The feeding environment was room temperature 23±0.2° C. and 12/12 h day/night alternating light and dark. Prior to behavioral testing, animals were moved to the behavioral testing room 2 hours in advance to acclimatize them to the environment and reduce their nervousness.
Preparation of the test material: the test compounds were weighed and dissolved in 0.9% NaCl solution, mixed well, and prepared into 1 mg/ml and 2 mg/ml solution for use, respectively.
24 h prior to drug administration, mice were placed in a cylindrical tank to acclimatize to the water environment for 10 min. On the day of the behavioral test, the animals were administered the drug once, by gavage/intraperitoneal injection at 1 h and 24 h prior to the behavioral test, respectively (as shown in Table 1).
The antidepressant effect of the compounds was evaluated by their ability to cause a reduction in the immobility time of the animals in the forced swim test compared to the blank group.

[4] = In vivo pharmacokinetic experiments in beagle dogs; conditions: beagle dog
Experimental: Healthy male beagle dogs, randomly grouped with 3 dogs in each group, were given the test compound by gavage or intravenous injection.
as §1
Fasting but not abstaining from water for 12-14 hours on the day before administration, and food was given 4 h after administration; no fasting was done for the intravenous experiments.
Each animal was sampled with 0.6 mL of blood each time through the jugular vein and anticoagulated with EDTAK2. The collection time points were 5 min, 10 min, 15 min, 30 min, 1 h, 2 h, 4 h, 6 h, 8 h, and 24 h after administration of the subject in group PO; group IV: 2 min, 5 min, 15 min, 30 min, 1 h, 2 h, 4 h, 6 h, 24 h after administration of the subject. Blood samples were placed on ice after collection and centrifuged to separate plasma within 30 min (centrifugation conditions: 5000 rpm, 10 min, 4° C.). The samples were stored at −80° C. before analysis.

C57 mice [5] = test: Forced swim test of oral administration in mice (antidepressant activity); format: in vivo; conditions: Mus musculus, reduction of immobility time vs blank group, abdominal injection 10 mg/kg
[6] = test 1 h after dosing, read-out: 1 h inhibition (%)
[7] = test 24 h after dosing, read-out: 24 h inhibition (%)

With `CN[C@@]1(c2ccc(C(F)(F)F)cc2)CCC[C@](C)(O)C1=O.Cl` [Compound 73, (2S,6R)-2-hydroxy-2-methyl-6-methylamino-6-(4-(trifluoromethyl)phenyl)cyclohexan-1-one hydrochloride] the “Stability of solid state compound, 0 Days (%)” value ([1]; 0 days, liquid chromatography) was 99.94%, the “Stability of solid state compound, 5 Days (%)” value ([1]; 5 days) was 99.90% and the “Stability of solid state compound, 10 Days (%)” value ([1]; 10 days) was 99.88%. The “Stability of solid state compound, 30 Days (%)” value ([1]; 30 days) was 99.89%, the AUC0-t brain ([2]; brain) was 6172 ng·h/g and the Cmax brain ([2]; brain) was 5567 ng/g. It also gave a Kp ([2]; male, rat, brain and plasma, po, read-out: brain/plasma ratio) of 3.4, an AUC0-t ([2]; male, rat, po, plasma) of 1820 ng·h/mL and a Cmax ([2]; male, rat, po, plasma) of 1600 ng/mL. For the same compound, the inhibition in vivo at 20 mg/kg (C57 mice [3]; [6]) was 68.7 ± 0.6%, the inhibition in vivo at 20 mg/kg (C57 mice [3]; [7]) was 39.4 ± 4.4% and the AUC0-t ([4]; 1 mg/kg i.v.) was 941 ngh/mL. The “AUC0-∞” value ([4]; 1 mg/kg i.v.) was 970 ngh/mL, the AUC0-t ([4]; 5 mg/kg P.O.) was 2179 ngh/mL and the “AUC0-∞” value ([4]; 5 mg/kg P.O.) was 2224 ngh/mL. It also gave an F ([4]; 5 mg/kg P.O.) of 46.3%, an MRT ([4]; male, plasma, iv, 1 mg/kg i.v.) of 1.84 h and a clearance ([4]; male, plasma, iv, 1 mg/kg i.v.) of 17.7 mL/min/kg. The half-life ([4]; male, plasma, iv, 1 mg/kg i.v.) was 1.61 h, the Vd ([4]; male, plasma, iv, 1 mg/kg i.v., read-out: Vss) was 1.93 L/kg and the Cmax ([4]; male, plasma, po, 5 mg/kg P.O.) was 1020 ng/mL. The MRT ([4]; male, plasma, po, 5 mg/kg P.O.) was 2.57 h, the Tmax ([4]; male, plasma, po, 5 mg/kg P.O.) was 0.42 h and the half-life ([4]; male, plasma, po, 5 mg/kg P.O.) was 2.33 h.

`CN[C@]1(c2ccccc2Cl)CCCCC1=O` [S-ketamine] showed an inhibition in vivo at 10 mg/kg (C57 mice [5]; [6]) of 20.7 ± 3.7% and an inhibition in vivo at 10 mg/kg (C57 mice [5]; [7]) of 23.6 ± 1%.
